Test results published in patent publication US20110130346A1, “PEPTIDE CONJUGATES FOR DELVERY OF BIOLOGICALLY ACTIVE COMPOUNDS” (ISIS INNOVATION LIMITED, priority 2008, published 2011).
Entries after “also recorded” stand apart in the source; their conditions may differ.

Assays:
[1] = test system: glucose transporters; assay: Example 3: glucose transporter inhibitors and hexose analogues in glucose-enhanced 2′OMePS AO uptake into TA muscle; type: in vivo; details: 8 week old mdx mice; for effect of sugar or analogue used in place of D-glucose in 2′OMePS AO formulation on dystrophin-positive fibres: same concentration as D-glucose, intramuscular, two weeks; for effect of inhibitor on the enhancing effect of 5% D-glucose formulation of 2′OMePS AO: intramuscular into TA
Excerpt: To investigate whether carrier-mediated glucose uptake might be implicated in the mechanism of enhanced AO uptake into muscle, we examined the effects of a range of glucose concentrations using glucose-formulated 2′OMePS AOs. This was studied again via intramuscular administration into 8 week old mdx mice. […] The activity of glucose transporters is known to be stereospecific in that only D-glucose isomers can be actively transported. To further test the idea carrier-mediated glucose uptake might be implicated in the mechanism and to rule out possible osmotic effects of the glucose formulation we investigated the activities of D- and L-glucose isomers in AO formulations. The same concentration of L-glucose was formulated with 2′OMePS AOs and delivered to 8 week old mdx mice by local intramuscular injection.
To investigate whether specific glucose transporters might be implicated directly in the mechanism of enhanced AO uptake we tested whether or not various inhibitors of glucose transporter function could abolish the enhanced uptake of 2′OMePS AOs into TA muscles in 8 week old mdx mice. Two inhibitor compounds, phloretin and phloridzin, are well-characterised inhibitors of glucose transport. […] That enhanced AO uptake and activity was dependent on a phloretin-sensitive pathway, is a hallmark of involvement of the GLUT family of facilitative glucose transporters. Given that glucose transporter-mediated glucose uptake appeared mechanistically important, we further investigated this by studying whether any products of intracellular glucose metabolism might be implicated downstream in the uptake mechanism. To do this we investigated a glucose analogue, 3-O-methyl glucose (3-OMG) that is effectively transported by glucose transporters but not subject to phosphorylation by glucokinase by using the same concentration of 3-OMG formulated with 2′OMePS AO. Two weeks following intramuscular injection TA muscles cryosections were assayed by immunohistochemistry.
For intramuscular studies the TA muscle of each experimental mdx mouse was injected with a 40 μl dose of PNA and PNA-peptide conjugates with saline at a final concentration of 125 μg/ml, and the contralateral muscle was injected with saline. For systemic intravenous injections, X μg PNA or PNA-peptide conjugates in 80 μl saline buffer were injected into tail vein of mdx mice at the final dose of 25 mg/kg and 6 mg/kg, respectively. The animals were killed at various time points after injection by CO2 inhalation and tissues were removed and snap-frozen in liquid nitrogen-cooled isopentane and stored at −80° C.
Sections of 8 μm were cut from at least two-thirds of the muscle length of TA, quadriceps, gastrocnemius, biceps, abdominal wall and diaphragm muscles and cardiac muscle at 100 μm intervals. The sections were then examined for dystrophin expression with a polyclonal antibody 2166 against the dystrophin carboxyl-terminal region. The maximum number of dystrophin-positive fibres in one section was counted using the Zeiss AxioVision fluorescence microscope. The intervening muscle sections were collected either for RT-PCR analysis and Western blot or as serial sections for immunohistochemistry. Polyclonal antibodies were detected by goat-anti-rabbit IgGs Alexa Fluro 594 (Molecular Probe, UK). Routine haematoxylin and eosin staining was used to examine overall muscle morphology and assess the level of infiltrating mononuclear cells. The serial sections were also stained with a panel of polyclonal and monoclonal antibodies for the detection of DAPC protein components. Rabbit polyclonal antibody to neuronal nitric oxide synthase (nNOS) and mouse monoclonal antibodies to β dystroglycan, α-sarcoglycan and β-sarcoglycan were used according to manufacturer's instructions (Novocastra, UK). Polyclonal antibodies were detected by goat-anti-rabbit IgGs Alexa 594 and the monoclonal antibodies by goat-anti-mouse IgGs Alexa 594 (Molecular Probe, UK). […]

[2] = test system: exon and intron 23 of the dystrophin gene; assay: Example 1: intramuscular injection into TA muscle of mdx mice, count of dystrophin-positive fibres by immunohistochemistry; type: in vivo; details: for dose dependence of dystrophin induction: 5 μg, 10 μg and 20 μg intramuscular; for number of dystrophin-positive fibres per TA muscle: 20 μg intramuscular
Protocol: Three age groups of mdx mice were used: 20-21 days (referred to as 3 weeks; five mice for each test and control groups), 2-month old (five mice for test groups and control groups), and 5-6 months (referred to 6 months, six mice for each testing and control group). Mice were killed by cervical dislocation at desired time points, and muscles were snap-frozen in liquid nitrogen-cooled isopentane and stored at −80° C.
One tibialis anterior (TA) muscle of each experimental mdx mouse was injected with a 40 μl dose (3-week-old group injected with 10 μl) of PNA-peptide conjugates with saline at a final concentration of 125 μg/ml, and the contralateral muscle was injected with saline. The animals were sacrificed at various time points after injection, the muscles were removed and snap-frozen in liquid nitrogen-cooled isopentane and stored at −80° C. To examine the dose-response profile, 2-month old mdx mice received the injections of 10 μg and 20 μg of PNA-peptide conjugates.
Sections of 8 μm were cut from at least two-thirds of muscle length of TA muscles at 100 μm intervals. The sections were then examined for dystrophin expression with a polyclonal antibody 2166 against the dystrophin carboxyl-terminal dystrophin. The maximum number of dystrophin-positive fibres in one section was counted using the Zeiss AxioVision fluorescence microscope. The intervening muscle sections were collected either for Western blot or as serial sections for immunohistochemistry. Polyclonal antibodies were detected by goat-anti-rabbit IgGs Alexa Fluro 594 (Molecular probe). Routine H&E staining was used to examine overall muscle morphology and assess the level of infiltrating mononuclear cells.

[3] = test system: exon 23 of the dystrophin transcript; assay: RT-PCR of exon 23 skipping after lipofectin transfection of H2K mdx cells; type: cell-based, mouse; details: 250 nm
Protocol: The H2K mdx myoblasts were cultured at 33° C. under a 10% CO2/90% air atmosphere in high-glucose DMEM supplemented with 20% fetal calf serum, 0.5% chicken embryo extract (PAA laboratories Ltd, Yeovil, UK), and 20 units/ml γ-interferon (Roche applied science, Penzberg, Germany). Cells were then treated with trypsin and plated at 2×10^4 cells per well in 24-well plates coated with 200 ug/ml gelatine (Sigma). H2K mdx cells were transfected 24 h after trypsin treatment in a final volume of 0.5 ml of antibiotic- and serum-free Opti-MEM (Life Technologies). Each well was treated with 250 nM of PNA-peptide complexed with corresponding amounts of lipofectin (weight ratio 1:2=oligolipofectin) (Life Technologies) according to the supplier's instructions. After 4 h of incubation, the transfection medium was replaced with DMEM supplemented medium.
Cells were transfected as triplicate wells with Lipofectin-Oligonucleotide complexes and total cellular RNA was then extracted 24 h after transfection with RNAeasy mini kit (Qiagen) and 200 ng of RNA template was used for 20 μl RT-PCR with OneStep RT-PCR kit (Qiagen, West Sussex, UK). The primer sequences for the initial RT-PCR were Exon20Fo 5′-[…]-3′ (SEQ ID NO: 125) and Ex26Ro 5′-[…]-3′ (SEQ ID NO: 126) for amplification of mRNA from exons 20 to 26. The cycling conditions were 95° C. for 30 sec, 55° C. for lmin, and 72° C. for 2 min for 30 cycles. […]

[4] = 2-month old mdx mice, 5 μg intramuscular
[5] = 2-month old mdx mice, single 5 μg intramuscular injection into TA, two weeks

In the case of `OCC1OC(O)CC(O)C1O` (stereo not drawn) [2-DG], the “effect of sugar or analogue used in place of D-glucose in 2′OMePS AO formulation on dystrophin-positive fibres” value (from here on “effect of sugar or analogue used”) [1] is reported as “abolished”.
With `CO[C@@H]([C@H](O)[C@H](O)CO)[C@@H](O)C=O` [3-OMG, 3-O-methyl glucose] the “effect of sugar or analogue used” value [1] was “decrease in the number of dystrophin-positive fibres”.
With `CO[C@H]1O[C@H](CO)[C@H](O)[C@H](O)[C@H]1O` [AMG] the “effect of sugar or analogue used” value [1] was “abolished”.
For `O=C[C@H](O)[C@@H](O)[C@@H](O)[C@H](O)CO` [D-galactose], the “effect of sugar or analogue used” value [1] was “replicated”.
For `O=C[C@@H](O)[C@@H](O)[C@H](O)[C@H](O)CO` [D-mannose], the “effect of sugar or analogue used” value [1] was “replicated”.
In the case of `O=C[C@@H](O)[C@H](O)[C@@H](O)[C@@H](O)CO` [L-glucose], the “effect of sugar or analogue used” value [1] is reported as “significant decrease in number of dystrophin-positive myofibres”.
In the case of `O=C(CCc1ccc(O)cc1)c1c(O)cc(O)cc1O` [phloretin], the “effect of inhibitor on the enhancing effect of 5% D-glucose formulation of 2′OMePS AO” value [1] is reported as “completely abolished”.
For `O=C(CCc1ccc(O)cc1)c1c(O)cc(O)cc1O[C@@H]1O[C@H](CO)[C@@H](O)[C@H](O)[C@H]1O` [phloridzin], the “effect of inhibitor on the enhancing effect of 5% D-glucose formulation of 2′OMePS AO” value [1] was “partially but significantly abolished”.
In the case of ASSLNIA-S-S-Lggccaaacctcggcttacct [MSP], the “dystrophin-positive fibres observed (in words)” value [2, 4] is reported as “large number of dystrophin-positive fibres”, the “focal areas with strong dystrophin-positive muscle fibres” value [2, 4] is reported as “observed” and the “dose dependence of dystrophin induction” value ([2]; 2-month old mdx mice) is reported as “not significant”. For the same compound, the “number of dystrophin-positive fibres” value ([2]; 6-month old mdx mice, single 5 μg intramuscular) was 237±58.
With “IVADNLQQQNTAPQIGTVNSQ-S-S-Lggccaaacctcggcttacct [AAV8]” the “removal of exon 23 from the dystrophin transcript (RT-PCR)” value [3] was “efficient removal of exon 23”, the “dystrophin-positive fibres observed (in words)” value [2, 4] was “large number of dystrophin-positive fibres” and the “dose dependence of dystrophin induction” value ([2]; 2-month old mdx mice) was “significant difference between 10 μg and 5 μg injection; also recorded: no further increase”. For the same compound, the “number of dystrophin-positive fibres” value ([2]; 2-month old mdx mice, 10 μg intramuscular (printed 'bug')) was 308±20, the “number of dystrophin-positive fibres per TA muscle” value ([2]; 2-month old mdx mice) was 282±63 and the “number of dystrophin-positive fibres” value [2, 5] was 171±40.
For “TVAVNLQSSSTDPATGDVHVM-S-S-Lggccaaacctcggcttacct [AAV6]”, the “dystrophin-positive fibres in 3-week and 6-month old mice in comparison with 2-month old mice” value ([2]; 5 μg intramuscular) was “slightly fewer dystrophin-positive fibres”, the “dystrophin-positive fibres observed (in words)” value [2, 4] was “large number of dystrophin-positive fibres” and the “focal areas with strong dystrophin-positive muscle fibres” value [2, 4] was “observed”. For the same compound, the “dose dependence of dystrophin induction” value ([2]; 2-month old mdx mice) was “significant difference between 20 μg and 5, 10 μg injection”, the “number of dystrophin-positive fibres per TA muscle” value ([2]; 2-month old mdx mice) was 424 (±86) and the “number of dystrophin-positive fibres” value [2, 5] was 251.
